The record followed here is patent US20240199624A1, “COMPOUNDS, COMPOSITIONS, AND METHODS” (CHDI Foundation, Inc., priority 2022, published 2024).

Structures are written as SMILES.

Common to all, as to format: biochemical
The target in assay [1] is T1, human MutSbeta (Homo sapiens, UniProt P20585+P43246).
T1 construct: Msh2(1-934), Gene ID NP_000242.1; Msh3(1-1137), Gene ID J04810.1
In words: P33 SPA. To be noted: ATP added to compounds first, then enzyme with DNA; 2 μM ATP, 7 nM enzyme, 60 min 37° C. Here is the method: P33 SPA: Enzyme human MutSbeta (Msh2(1-934), Gene ID NP_000242.1, Msh3(1-1137), Gene ID J04810.1) and 22 bp biotin-labeled DNA containing a GT-mismatch (purchased from Curia Global, TOP 5′-[…]-3′; BOT 3′-AGTAGCTAGGC - - - CGAAGTCTACC-5′-Biotin) were pre-incubated at equimolar concentration for 15 min at room temperature (“RT”) in assay buffer (25 mM HEPES pH=7.5, 150 mM KCl, 2 mM MgCl2, 2 mM GSH, 0.01% Tween-20). ATP (10 μL, 2× final concentration of γ-[^33P]-ATP (final 0.1 nM; Hartmann Analytic, FF-301) and cold ATP (final 2 μM)) was added to compounds (400 nL spotted as concentration response in 100% DMSO into wells of an OptiPlate) and pre-incubated for 30 min at RT. Then, enzyme with DNA was added (10 μL, 2× final concentration of 7 nM) and incubated for 60 min at 37° C. in a total volume of 20 μL per well. Decay of [^33P] with a half-life of 25.4 days was corrected by increasing the concentration of the labelled nucleotide with the appropriate factor; all steps with radioactive ATP were conducted behind appropriate shielding. Then, 20 μL of a 1:2 mix of ammonium molybdate (20 mg/mL Ammonium molybdate in 2.4 M HCl) and SPA beads (ProteinA SPA beads from Perkin Elmer Cat #RPNQ0019 at 7.5 mg/mL+1% azide) was added per well and incubated at RT for 2 min. Then, 40 μL of 7 M CsCl and 0.1 M citrate was added per well and incubated for 20 h at RT before measuring on the MicroBeta (top read mode, 1 min per well). For full plate processing, all reagents were transferred with a pipettor (Selma, CyBio) apart from the final reagent (CsCl+citrate) which was added with a dispenser (MultiFlo, BioTek). Data analysis during assay development was done with Prism GraphPad.

Assay [2] concerns the target T1, human MutSbeta. In words: ADP Glo assay 1.1. The note with it: SPA buffer, no Ovalbumin; enzyme added to compounds before ATP; read-out: ADP Gol 1.1 assay IC50. The procedure: (§1) ADP Glo assay 2.1: Enzyme human MutSbeta (Msh2(1-934), Gene ID NP_000242.1, Msh3(1-1137), Gene ID J04810.1) with 22 bp biotin-labeled DNA containing a GT-mismatch (purchased from Curia Global, TOP 5′-[…]-3′; BOT 3′-AGTAGCTAGGC - - - CGAAGTCTACC-5′-Biotin) was pre-incubated in assay buffer (25 mM HEPES pH=7.5, 150 mM KCl, 5 mM MgCl2, 5 mM GSH, 0.1% Pluronic F-127, 0.2% Ovalbumin) to allow formation of the enzyme-DNA complex. Plates with spotted compounds in serial dilutions in DMSO (80 nL) were filled with ATP (2 μL, 10 μM final concentration) followed by an incubation of 30 min at RT. Then, enzyme was added (2 μL, 7 nM final concentration) and the reaction was allowed to proceed for 60 min at 37° C. After the ATPase reaction, the commercially available “ADP-Glo Reagent” was added (incubate 40 min at RT) to deplete remaining ATP via the activity of […]. Subsequently, the commercially available “Kinase Detection Reagent” converted ADP to ATP via the activity of PEP and Pyruvate kinase. The ATP was then converted into light by Ultra-Glo Luciferase. The obtained luminescence was proportional to the ADP concentration generated during the initial ATPase reaction. The luminescence signal was measured with an Envision reader, raw data were analyzed towards controls (full reaction=0% inhibition; no reaction in absence of enzyme=100% inhibition) and IC50 curves were analyzed with the inhouse software Aplus.
ADP Glo assay 1.1: The ADP Glo 2.1 assay was adapted to enable assessment of a more direct interaction of the compound with the enzyme: (1) the SPA buffer was applied (25 mM HEPES pH=7.5, 150 mM KCl, 2 mM MgCl2, 2 mM GSH, 0.01% Tween-20) which contained no decoy Ovalbumin protein. (2) The order of reagent addition was changed, and enzyme was now added directly to the spotted compounds before addition of ATP.
A general note: ADP-Glo turns the ADP formed in a reaction into a luminescent signal.

For assay [3], the target named is T2, human MutSα (Homo sapiens, UniProt P43246+P52701).
T2 construct: Msh2(1-934), Gene ID NP_000242.1; Msh6(1-1360), Gene ID NP_001393725.1
In words: ADP Glo assay with MutSα (2.1). The note with it: 15 nM MutSα/DNA, 30 μM ATP. The procedure: as §1
ADP Glo assay with MutSα (2.1): The ADP Glo assay version 2.1 with the enzyme human MutSα (Msh2(1-934), Gene ID NP_000242.1, Msh6(1-1360), Gene ID NP_001393725.1) was based on the same principle and protocol steps as the MutSβ assay. A 22 bp biotin-labeled DNA containing a GT-mismatch (purchased from Curia Global, TOP 5′-[…]-3′; BOT 3′-AGTAGCTAGGC - - - CGAAGTCTACC-5′-Biotin) was used for binding to MutSα. For this assay, concentrations of enzyme and ATP were optimized to 15 nM MutSα/DNA and 30 μM ATP.

T1 sequence (P43246 whole entry): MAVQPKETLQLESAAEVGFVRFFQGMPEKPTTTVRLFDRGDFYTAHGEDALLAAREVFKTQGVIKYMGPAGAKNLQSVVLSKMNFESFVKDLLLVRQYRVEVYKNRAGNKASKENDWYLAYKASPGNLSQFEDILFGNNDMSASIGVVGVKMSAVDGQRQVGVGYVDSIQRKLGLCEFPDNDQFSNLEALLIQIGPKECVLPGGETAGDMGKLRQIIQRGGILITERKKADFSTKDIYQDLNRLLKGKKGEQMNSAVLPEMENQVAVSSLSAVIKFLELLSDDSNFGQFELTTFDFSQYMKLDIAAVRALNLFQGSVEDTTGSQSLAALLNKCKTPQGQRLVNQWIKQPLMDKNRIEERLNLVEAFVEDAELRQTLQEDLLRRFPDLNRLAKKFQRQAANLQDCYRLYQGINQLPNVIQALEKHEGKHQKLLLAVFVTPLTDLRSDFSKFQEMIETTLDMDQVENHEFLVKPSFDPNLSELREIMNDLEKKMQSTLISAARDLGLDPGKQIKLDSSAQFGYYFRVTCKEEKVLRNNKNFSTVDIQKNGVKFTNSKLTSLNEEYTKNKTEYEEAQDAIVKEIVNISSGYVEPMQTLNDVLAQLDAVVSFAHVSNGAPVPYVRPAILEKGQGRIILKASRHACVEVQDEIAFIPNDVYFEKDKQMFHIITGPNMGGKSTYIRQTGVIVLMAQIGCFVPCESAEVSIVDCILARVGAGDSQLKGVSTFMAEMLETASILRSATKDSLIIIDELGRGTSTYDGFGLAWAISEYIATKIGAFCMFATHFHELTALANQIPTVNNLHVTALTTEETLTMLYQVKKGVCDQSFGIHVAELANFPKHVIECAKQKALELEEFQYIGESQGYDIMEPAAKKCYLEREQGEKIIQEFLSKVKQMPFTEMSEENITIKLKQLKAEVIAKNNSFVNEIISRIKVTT
T1 sequence (P20585 whole entry): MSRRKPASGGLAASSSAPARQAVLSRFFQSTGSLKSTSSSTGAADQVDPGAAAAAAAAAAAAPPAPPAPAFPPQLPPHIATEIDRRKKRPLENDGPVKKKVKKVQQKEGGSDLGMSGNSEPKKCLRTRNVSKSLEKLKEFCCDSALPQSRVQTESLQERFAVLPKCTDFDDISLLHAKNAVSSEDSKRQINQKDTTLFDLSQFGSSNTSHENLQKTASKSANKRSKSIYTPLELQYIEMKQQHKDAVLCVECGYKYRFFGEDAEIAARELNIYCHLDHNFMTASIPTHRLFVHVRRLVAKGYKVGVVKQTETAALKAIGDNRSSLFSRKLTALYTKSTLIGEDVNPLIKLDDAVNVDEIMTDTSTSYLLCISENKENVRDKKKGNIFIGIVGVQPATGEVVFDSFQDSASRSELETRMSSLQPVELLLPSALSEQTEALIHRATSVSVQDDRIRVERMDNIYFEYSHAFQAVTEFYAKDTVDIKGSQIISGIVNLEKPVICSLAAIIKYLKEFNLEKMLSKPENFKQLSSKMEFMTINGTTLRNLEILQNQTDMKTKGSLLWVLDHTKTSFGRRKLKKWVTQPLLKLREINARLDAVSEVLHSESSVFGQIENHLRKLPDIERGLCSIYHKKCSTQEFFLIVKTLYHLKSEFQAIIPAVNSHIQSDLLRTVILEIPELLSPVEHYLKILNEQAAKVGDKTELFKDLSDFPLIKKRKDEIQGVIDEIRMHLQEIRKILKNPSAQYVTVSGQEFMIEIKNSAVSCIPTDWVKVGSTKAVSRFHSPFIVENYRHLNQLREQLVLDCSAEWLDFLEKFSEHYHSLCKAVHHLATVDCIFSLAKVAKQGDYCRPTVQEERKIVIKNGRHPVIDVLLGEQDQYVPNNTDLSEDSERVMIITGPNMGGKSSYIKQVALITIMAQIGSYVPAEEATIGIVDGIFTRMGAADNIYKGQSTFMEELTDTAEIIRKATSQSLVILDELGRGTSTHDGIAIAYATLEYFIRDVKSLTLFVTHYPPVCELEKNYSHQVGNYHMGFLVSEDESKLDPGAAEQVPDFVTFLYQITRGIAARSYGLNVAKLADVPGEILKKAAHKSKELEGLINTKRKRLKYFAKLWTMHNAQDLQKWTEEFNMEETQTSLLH
T2 sequence (P43246 whole entry): as the sequence (P43246 whole entry) above
T2 sequence (P52701 whole entry): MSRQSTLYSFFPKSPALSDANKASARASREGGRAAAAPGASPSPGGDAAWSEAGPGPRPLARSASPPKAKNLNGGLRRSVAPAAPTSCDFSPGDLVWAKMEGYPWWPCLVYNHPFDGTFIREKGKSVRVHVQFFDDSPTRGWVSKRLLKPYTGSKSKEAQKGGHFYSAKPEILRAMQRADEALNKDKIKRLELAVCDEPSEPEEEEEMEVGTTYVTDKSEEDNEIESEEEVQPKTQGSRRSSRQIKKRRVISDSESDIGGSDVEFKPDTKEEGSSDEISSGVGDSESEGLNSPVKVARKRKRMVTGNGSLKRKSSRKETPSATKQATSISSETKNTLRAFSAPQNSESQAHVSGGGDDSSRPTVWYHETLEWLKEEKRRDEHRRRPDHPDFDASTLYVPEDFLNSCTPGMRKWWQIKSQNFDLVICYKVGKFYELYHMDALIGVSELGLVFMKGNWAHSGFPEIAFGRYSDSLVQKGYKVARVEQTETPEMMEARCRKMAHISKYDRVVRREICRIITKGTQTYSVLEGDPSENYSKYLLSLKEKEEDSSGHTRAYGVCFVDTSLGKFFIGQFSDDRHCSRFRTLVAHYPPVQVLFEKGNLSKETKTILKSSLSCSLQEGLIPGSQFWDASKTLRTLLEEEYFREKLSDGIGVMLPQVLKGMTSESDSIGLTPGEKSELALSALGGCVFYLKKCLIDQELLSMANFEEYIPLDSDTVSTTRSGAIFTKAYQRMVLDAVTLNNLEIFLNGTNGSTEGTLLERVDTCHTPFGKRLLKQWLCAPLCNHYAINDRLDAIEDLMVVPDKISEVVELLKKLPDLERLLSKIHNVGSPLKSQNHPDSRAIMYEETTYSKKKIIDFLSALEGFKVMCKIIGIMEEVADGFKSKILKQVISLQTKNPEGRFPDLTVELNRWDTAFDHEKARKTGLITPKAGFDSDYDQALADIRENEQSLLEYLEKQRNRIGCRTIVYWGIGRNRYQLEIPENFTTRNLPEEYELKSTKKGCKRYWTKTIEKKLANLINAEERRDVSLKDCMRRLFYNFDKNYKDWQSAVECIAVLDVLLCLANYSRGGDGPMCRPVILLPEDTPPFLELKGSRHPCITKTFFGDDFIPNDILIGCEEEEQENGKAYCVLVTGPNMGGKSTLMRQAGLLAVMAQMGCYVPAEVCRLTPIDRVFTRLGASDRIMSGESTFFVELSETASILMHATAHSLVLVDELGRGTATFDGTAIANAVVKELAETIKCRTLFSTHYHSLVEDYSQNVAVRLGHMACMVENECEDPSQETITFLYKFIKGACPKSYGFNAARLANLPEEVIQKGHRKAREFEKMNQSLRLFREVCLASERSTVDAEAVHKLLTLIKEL

Usually IC50 stands for the concentration needed to halve the response being measured. As to `Cc1ccc(Nc2nc(N3CCN(C)CC3)nc3nccnc23)cc1C` [Compound 2, N-(3,4-dimethylphenyl)-2-(4-methylpiperazin-1-yl)pteridin-4-amine], the figures for the IC50 in assay [1], in assay [2] and in assay [3] were 28.6 µM, 54.8 µM and 135 µM, respectively.

As to `CCN1CCN(c2nc(Nc3ccc(Cl)cc3)c3nccnc3n2)CC1` [Compound 4, N-(4-Chlorophenyl)-2-(4-ethylpiperazin-1-yl)pteridin-4-amine], the results for the IC50 in assay [1], in assay [2] and in assay [3] were 23.8 µM, 64.3 µM and 121 µM, respectively.
